# In patent US20260224597A1, “METHODS FOR ACTIVATING IMMUNE CELLS TO KILL BACTERIA” (The Texas A&M University System, priority 2023, published 2026):
# Read-outs that look alike come from different tables or passages of the source.
# How the values were obtained:
# [1] = target: IP6K1 (Homo sapiens, UniProt Q92551); conditions: Liao 2021; read-out: IC50 as to IP6K1; cited from earlier work
# [2] = system: P. aeruginosa; conditions: in Caenorhabditis elegans, Neville et al., 2021; cited from earlier work
# [3] = target: PPK1 (Pseudomonas aeruginosa, UniProt P0DP44); conditions: in Pseudomonas aeruginosa, Neville et al., 2021; cited from earlier work
# [4] = system: Mtb; experiment: Transmission electron microscopy of Mtb cell envelope thickness; type: cell-based, Mycobacterium tuberculosis; conditions: TEM, 1 μg/ml INH and/or 5 μM gallein for 14 days
# [5] = system: Mtb; experiment: microbe, parasite or virus in culture; type: cell-based, Mycobacterium tuberculosis
# [6] = system: PPK2; conditions: in Pseudomonas aeruginosa, Neville et al., 2021; cited from earlier work
# [7] = system: human macrophages
# [8] = system: L. pneumophila; type: cell-based, Legionella pneumophila
# [9] = system: L. monocytogenes; type: cell-based, Listeria monocytogenes
# [10] = system: Mtb
# [11] = system: Mtb; experiment: microbe, parasite or virus in culture; conditions: Mycobacterium tuberculosis, Macrophage, in Homo sapiens, 48 h, read-out: reduction of the viability of Mtb
# Sequence of PPK1 (P0DP44 whole entry): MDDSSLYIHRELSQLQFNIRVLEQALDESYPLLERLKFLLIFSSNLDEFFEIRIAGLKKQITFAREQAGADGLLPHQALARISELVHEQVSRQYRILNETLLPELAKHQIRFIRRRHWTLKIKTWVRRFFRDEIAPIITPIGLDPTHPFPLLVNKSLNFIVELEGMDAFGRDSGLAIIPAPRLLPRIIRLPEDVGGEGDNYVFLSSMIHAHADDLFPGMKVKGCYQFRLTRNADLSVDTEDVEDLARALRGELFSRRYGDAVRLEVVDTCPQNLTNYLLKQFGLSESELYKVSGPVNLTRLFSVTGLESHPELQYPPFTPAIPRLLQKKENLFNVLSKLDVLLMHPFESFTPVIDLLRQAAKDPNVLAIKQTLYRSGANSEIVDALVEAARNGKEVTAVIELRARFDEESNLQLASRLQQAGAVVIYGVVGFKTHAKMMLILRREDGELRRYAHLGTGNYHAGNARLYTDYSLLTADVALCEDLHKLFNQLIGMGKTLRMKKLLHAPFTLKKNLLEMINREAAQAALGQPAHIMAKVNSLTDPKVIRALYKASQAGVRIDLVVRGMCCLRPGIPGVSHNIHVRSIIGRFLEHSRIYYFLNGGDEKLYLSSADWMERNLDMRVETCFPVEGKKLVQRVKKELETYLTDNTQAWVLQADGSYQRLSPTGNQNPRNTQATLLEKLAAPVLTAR
# Sequence of IP6K1 (Q92551 whole entry): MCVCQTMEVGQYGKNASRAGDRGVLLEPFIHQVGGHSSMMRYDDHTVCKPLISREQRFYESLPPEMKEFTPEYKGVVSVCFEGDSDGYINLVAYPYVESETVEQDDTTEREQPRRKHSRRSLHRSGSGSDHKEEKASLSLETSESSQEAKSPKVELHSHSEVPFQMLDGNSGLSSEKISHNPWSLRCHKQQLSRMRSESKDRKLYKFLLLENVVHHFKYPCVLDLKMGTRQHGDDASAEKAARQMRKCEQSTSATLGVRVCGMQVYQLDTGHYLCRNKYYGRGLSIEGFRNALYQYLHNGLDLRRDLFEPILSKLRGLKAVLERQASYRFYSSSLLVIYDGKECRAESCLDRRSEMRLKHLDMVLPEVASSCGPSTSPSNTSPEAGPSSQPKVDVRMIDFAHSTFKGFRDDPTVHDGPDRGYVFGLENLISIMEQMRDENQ
SMILES,Mtb cell envelope thickness [4],metabolic activity of macrophages infected with Mtb [7],viability of ingested L. pneumophila compared to control [8],viability of ingested L. monocytogenes compared to control [9],number of ingested Mtb compared to control [10],number of viable Mtb compared to control [10],other results
Cn1sc(=O)n(Cc2ccccc2)c1=O [LI-1753],,,,,,,IC50 [1]: 2150 nM
"O=C1OC2(c3ccccc31)c1ccc(O)c(O)c1Oc1c2ccc(O)c1O [gallein, 3′,4′,5′,6′-Tetrahydroxyspiro[isobenzofuran-1(3H),9′-(9H)xanthen]-3-one]",did not significantly affect,did not significantly change,reduced the viability,reduced the viability,increased,reduced the number of viable Mtb,"virulence of P. aeruginosa [2]: attenuates the virulence; PPK1 enzyme activity [3]: inhibits; Mtb growth compared to control [5]: slightly slowed growth; inhibition at 50 µM ([5]; Mycobacterium tuberculosis, 336 h, read-out: inhibition of Mtb growth): ~80%; PPK2 enzyme activity [6]: inhibits; metabolic activity of macrophages ([7]; human): None of the concentrations of MRS2279 and gallein significantly altered; ingested Mtb viability compared to control [10]: decreased ingested Mtb viability; viability of ingested Mtb compared to control [10]: reduced the viability"
"O=[N+]([O-])c1ccc(CNc2nc(NCc3cccc(C(F)(F)F)c3)nc3[nH]cnc23)cc1 [TNP, N6-[(4-nitrophenyl)methyl]-N2-[[3-(trifluoromethyl)phenyl]methyl]-9H-Purine-2,6-diamine]",,did not significantly change,reduced the viability,reduced the viability,increased,reduced the number of viable Mtb,inhibition at 1 µM [11]: ~50%; metabolic activity of macrophages [7]: reduced the metabolic activity
"NNC(=O)c1ccncc1 [INH, Isonicotinic acid hydrazide]",increased,,,,,,Mtb growth [5]: partial but not complete reduction
